ChEMBL document CHEMBL1909046, “DrugMatrix in vitro pharmacology data”
pIC50, pKi: −log10 of the molar value.

Assays:
[1] = biological target: T1, 5-hydroxytryptamine receptor 2C (Homo sapiens, UniProt P28335); experiment: DRUGMATRIX: Serotonin (5-Hydroxytryptamine) 5-HT2C radioligand binding (ligand: [3H] Mesulergine); format: cell membranes, CHO-K1, Membrane; details: Not Active = under 50% inhibition at 10 µM; for IC50: cho-k1; for pIC50: read-out: IC50; for pKi: read-out: Ki
T1 sequence (P28335 whole entry): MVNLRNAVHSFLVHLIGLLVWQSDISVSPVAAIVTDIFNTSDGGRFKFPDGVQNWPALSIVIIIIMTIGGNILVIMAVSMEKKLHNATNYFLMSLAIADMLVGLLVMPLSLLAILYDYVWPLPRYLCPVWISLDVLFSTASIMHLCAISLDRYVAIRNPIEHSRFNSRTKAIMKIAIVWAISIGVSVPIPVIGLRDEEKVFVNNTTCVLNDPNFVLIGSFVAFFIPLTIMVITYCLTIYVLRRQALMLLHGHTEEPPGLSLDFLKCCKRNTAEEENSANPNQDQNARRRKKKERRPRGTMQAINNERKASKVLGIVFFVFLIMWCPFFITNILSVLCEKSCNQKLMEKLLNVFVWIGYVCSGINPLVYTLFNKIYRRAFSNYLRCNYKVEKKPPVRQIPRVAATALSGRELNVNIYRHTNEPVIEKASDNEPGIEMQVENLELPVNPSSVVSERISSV

[2] = biological target: Vascular endothelial growth factor receptor 1 (Homo sapiens, UniProt P17948); format: cell-based; details: huvec; further: in other assays of this panel Not Active means under 50% inhibition at 10 µM
D(3) dopamine receptor = D(3) dopamine receptor (Homo sapiens, UniProt P35462); experiment: DRUGMATRIX: Dopamine D3 radioligand binding (ligand: [3H] Spiperone); format: cell membranes, CHO, Membrane; details: for IC50: cho; for pIC50: read-out: IC50; for pKi: read-out: Ki
[3] = biological target: T2, 3-hydroxy-3-methylglutaryl-coenzyme A reductase (Homo sapiens, UniProt P04035); design: species or system Escherichia coli;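 further: enzyme inhibition assay of HMG-CoA reductase using radiolabeled [14C]HMG-CoA as substrate; in other assays of this panel Not Active means under 50% inhibition at 10 µM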
T2 sequence (P04035 whole entry): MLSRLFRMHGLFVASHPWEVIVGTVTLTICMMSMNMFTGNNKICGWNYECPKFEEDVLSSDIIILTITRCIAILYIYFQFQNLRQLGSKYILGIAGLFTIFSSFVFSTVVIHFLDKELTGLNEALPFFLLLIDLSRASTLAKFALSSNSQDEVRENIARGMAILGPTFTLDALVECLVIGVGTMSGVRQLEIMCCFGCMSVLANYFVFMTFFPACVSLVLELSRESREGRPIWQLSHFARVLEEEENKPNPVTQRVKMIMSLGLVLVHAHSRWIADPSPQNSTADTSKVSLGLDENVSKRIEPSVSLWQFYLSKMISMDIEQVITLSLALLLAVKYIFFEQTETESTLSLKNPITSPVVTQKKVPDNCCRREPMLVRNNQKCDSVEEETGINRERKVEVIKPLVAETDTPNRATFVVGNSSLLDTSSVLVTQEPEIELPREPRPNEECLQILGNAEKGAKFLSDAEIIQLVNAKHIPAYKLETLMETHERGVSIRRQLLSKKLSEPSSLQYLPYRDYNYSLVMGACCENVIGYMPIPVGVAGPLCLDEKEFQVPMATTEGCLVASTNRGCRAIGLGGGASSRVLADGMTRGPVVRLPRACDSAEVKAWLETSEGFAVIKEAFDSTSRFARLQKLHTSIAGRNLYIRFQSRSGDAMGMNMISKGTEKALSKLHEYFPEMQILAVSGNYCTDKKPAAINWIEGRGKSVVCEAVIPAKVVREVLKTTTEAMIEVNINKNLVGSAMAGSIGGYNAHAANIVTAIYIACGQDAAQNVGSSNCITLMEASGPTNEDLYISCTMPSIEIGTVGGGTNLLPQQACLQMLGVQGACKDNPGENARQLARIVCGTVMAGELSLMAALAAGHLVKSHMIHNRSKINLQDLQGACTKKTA

Melanocortin receptor 5 = Melanocortin receptor 5 (Homo sapiens, UniProt P33032); format: cell membranes, HEK293, Membrane; details: for IC50: hek293; on all read-outs here: in other assays of this panel Not Active means under 50% inhibition at 10 µM
[4] = biological target: T3, Neuropeptide Y receptor type 2 (Homo sapiens, UniProt P49146); format: cell membranes, Membrane; details: kan-ts; further: in other assays of this panel Not Active means under 50% inhibition at 10 µM
T3 sequence (P49146 whole entry): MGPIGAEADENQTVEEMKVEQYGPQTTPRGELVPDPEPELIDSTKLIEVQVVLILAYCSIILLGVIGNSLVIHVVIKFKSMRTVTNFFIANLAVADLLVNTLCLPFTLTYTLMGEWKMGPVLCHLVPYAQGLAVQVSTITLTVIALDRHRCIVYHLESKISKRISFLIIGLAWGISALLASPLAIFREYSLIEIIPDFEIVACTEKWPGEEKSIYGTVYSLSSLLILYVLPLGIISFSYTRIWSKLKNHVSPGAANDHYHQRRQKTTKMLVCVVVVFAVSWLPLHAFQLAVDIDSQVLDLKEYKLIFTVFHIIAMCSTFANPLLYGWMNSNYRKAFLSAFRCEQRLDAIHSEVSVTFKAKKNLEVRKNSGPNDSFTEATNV

[5] = biological target: Delta-type opioid receptor (Homo sapiens, UniProt P41143); format: cell membranes, HEK293, Membrane; details: for IC50: hek293
Acetylcholinesterase = Acetylcholinesterase (Homo sapiens, UniProt P22303); experiment: DRUGMATRIX: Acetylcholinesterase enzyme inhibition (substrate: acetylthiocholine); format: cell-based, HEK293; details: Not Active = under 50% inhibition at 10 µM; for IC50: hek293
Adenosine receptor A2a = Adenosine receptor A2a (Homo sapiens, UniProt P29274); experiment: DRUGMATRIX: Adenosine A2A radioligand binding (ligand: […]); format: cell membranes, HEK293, Membrane; details: hek293; Not Active = under 50% inhibition at 10 µM
Cytochrome P450 2A6 = biological target: T4, Cytochrome P450 2A6 (Homo sapiens, UniProt P11509); details: bti-tn-5b1-4; further: in other assays of this panel Not Active means under 50% inhibition at 10 µM
T4 sequence (P11509 whole entry): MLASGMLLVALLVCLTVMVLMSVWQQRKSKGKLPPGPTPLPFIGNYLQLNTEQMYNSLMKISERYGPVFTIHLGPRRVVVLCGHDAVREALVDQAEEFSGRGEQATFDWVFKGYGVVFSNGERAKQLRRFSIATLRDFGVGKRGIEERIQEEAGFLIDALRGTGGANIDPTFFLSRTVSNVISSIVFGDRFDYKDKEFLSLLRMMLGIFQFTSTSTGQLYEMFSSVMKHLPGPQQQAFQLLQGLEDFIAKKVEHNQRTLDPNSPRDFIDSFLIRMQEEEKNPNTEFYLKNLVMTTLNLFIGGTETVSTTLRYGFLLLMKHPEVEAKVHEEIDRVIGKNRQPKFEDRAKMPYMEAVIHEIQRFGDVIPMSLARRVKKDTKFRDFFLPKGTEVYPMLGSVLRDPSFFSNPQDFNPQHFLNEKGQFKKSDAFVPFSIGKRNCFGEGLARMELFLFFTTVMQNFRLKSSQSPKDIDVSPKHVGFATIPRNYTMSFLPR

[6] = DRUGMATRIX: GABAA, Chloride Channel, TBOB radioligand binding (ligand: [3H] TBOB); format: cell membranes, Rattus norvegicus, Wistar, Cerebral cortex, Membrane; details: Not Active = under 50% inhibition at 10 µM
[7] = DRUGMATRIX: Interleukin IL-1 radioligand binding (ligand: [125I] interleukin 1beta); format: cell membranes, Membrane; details: nih3t3; Not Active = under 50% inhibition at 10 µM

Chain of Adenosine receptor A2a (P29274 whole entry): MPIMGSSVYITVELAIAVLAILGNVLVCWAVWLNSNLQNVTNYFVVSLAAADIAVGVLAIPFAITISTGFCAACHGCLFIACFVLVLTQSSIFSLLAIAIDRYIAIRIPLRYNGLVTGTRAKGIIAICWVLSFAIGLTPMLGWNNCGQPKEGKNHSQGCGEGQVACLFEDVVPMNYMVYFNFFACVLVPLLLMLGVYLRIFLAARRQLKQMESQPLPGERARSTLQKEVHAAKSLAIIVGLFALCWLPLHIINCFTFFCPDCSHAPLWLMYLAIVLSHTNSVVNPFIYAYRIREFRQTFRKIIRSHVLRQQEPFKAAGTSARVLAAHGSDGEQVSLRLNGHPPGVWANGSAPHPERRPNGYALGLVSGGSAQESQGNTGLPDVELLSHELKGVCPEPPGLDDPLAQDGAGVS
Chain of Delta-type opioid receptor (P41143 whole entry): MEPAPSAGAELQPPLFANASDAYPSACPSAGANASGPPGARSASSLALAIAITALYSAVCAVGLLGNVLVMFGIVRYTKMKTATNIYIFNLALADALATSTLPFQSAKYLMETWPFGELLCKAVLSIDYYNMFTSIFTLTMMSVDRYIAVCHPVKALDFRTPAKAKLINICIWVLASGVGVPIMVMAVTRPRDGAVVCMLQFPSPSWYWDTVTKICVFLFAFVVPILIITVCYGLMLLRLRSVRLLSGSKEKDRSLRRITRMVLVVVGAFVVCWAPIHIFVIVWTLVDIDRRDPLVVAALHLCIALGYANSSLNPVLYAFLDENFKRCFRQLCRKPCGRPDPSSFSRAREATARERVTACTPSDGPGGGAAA
Chain of D(3) dopamine receptor (P35462 whole entry): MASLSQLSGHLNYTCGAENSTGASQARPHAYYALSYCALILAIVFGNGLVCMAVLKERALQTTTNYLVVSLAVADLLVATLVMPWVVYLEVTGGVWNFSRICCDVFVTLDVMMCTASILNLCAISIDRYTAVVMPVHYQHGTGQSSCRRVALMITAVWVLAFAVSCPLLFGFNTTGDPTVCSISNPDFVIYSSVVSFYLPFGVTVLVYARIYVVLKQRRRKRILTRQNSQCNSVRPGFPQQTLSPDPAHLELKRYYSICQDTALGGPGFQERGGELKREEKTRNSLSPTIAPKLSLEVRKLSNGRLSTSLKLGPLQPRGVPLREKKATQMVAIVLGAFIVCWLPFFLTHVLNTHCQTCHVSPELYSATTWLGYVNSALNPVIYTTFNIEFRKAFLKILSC
Chain of Vascular endothelial growth factor receptor 1 (P17948 whole entry): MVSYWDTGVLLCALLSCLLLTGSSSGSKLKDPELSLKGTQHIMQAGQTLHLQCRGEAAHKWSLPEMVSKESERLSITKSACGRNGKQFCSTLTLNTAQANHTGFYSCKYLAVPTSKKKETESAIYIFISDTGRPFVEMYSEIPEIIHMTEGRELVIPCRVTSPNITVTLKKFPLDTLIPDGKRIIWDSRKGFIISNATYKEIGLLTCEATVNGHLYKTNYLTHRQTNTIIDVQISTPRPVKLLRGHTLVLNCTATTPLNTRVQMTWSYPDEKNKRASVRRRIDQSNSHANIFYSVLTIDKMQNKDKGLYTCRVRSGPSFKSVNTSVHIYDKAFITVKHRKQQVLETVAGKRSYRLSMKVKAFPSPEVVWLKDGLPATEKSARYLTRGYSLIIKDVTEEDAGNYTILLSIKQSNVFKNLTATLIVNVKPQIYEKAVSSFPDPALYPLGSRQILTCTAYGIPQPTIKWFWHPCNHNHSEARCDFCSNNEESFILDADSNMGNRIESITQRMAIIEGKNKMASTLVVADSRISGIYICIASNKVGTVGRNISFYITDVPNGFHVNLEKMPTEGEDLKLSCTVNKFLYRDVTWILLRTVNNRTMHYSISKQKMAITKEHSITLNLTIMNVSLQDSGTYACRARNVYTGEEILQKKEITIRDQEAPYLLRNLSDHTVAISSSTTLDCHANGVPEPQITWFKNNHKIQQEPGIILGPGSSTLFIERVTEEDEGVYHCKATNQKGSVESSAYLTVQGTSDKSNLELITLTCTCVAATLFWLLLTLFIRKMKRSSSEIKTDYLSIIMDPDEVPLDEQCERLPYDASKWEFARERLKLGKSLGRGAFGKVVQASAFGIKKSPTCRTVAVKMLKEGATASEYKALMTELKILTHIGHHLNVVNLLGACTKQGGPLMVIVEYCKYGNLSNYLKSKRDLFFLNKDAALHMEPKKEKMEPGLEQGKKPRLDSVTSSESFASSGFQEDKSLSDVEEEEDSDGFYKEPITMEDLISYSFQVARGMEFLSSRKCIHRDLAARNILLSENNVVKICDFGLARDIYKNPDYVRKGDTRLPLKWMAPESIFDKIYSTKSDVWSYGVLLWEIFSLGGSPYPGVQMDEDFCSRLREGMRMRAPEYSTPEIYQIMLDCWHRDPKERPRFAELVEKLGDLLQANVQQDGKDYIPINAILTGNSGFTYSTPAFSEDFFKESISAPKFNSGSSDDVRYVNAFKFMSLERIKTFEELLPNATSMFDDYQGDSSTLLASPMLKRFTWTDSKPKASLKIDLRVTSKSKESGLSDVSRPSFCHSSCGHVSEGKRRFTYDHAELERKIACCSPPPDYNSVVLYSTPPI
Chain of Melanocortin receptor 5 (P33032 whole entry): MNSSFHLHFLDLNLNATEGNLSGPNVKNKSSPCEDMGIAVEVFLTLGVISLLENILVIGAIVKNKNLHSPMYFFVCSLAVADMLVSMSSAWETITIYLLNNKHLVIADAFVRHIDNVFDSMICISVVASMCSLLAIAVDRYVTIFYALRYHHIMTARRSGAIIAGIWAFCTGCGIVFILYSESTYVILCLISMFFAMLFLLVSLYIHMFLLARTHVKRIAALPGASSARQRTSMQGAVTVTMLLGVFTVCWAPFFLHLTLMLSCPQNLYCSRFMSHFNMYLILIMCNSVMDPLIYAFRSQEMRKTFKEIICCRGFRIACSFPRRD
Chain of Acetylcholinesterase (P22303 whole entry): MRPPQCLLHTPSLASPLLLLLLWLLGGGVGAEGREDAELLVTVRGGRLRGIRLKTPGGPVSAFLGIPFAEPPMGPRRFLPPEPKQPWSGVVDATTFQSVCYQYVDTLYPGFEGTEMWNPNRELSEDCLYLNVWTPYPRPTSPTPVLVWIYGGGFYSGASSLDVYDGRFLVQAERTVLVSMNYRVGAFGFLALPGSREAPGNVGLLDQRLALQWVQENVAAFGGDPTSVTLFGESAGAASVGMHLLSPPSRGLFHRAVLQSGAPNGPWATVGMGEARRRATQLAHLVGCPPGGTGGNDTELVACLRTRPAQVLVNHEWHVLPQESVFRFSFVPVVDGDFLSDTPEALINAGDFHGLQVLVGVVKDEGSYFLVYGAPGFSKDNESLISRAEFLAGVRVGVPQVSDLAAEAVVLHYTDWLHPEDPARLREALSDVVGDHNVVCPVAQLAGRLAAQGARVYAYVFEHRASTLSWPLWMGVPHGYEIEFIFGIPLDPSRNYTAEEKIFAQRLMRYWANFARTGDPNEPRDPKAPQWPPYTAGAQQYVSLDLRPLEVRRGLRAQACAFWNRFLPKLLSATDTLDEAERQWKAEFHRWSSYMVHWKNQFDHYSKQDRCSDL

Row | Structure (SMILES) | IC50 [1] | IC50 [2] | IC50 (D(3) dopamine receptor) | IC50 [3] | IC50 (Melanocortin receptor 5) | IC50 [4] | IC50 [5] | IC50 (Acetylcholinesterase) | IC50 (Adenosine receptor A2a) | IC50 (Cytochrome P450 2A6) | Ki (Cytochrome P450 2A6) | IC50 [6] | Ki [6] | IC50 [7] | Ki [7] | also measured
1 | COc1cccc(C2(O)CCCCC2CN(C)C)c1 (stereo not given) [TRAMADOL] | Not Active | Not Active | Not Active | Not Active | Not Active | Not Active | Not Active | Not Active | Not Active | Not Active | Not Active | – | – | – | – | –
2 | CN(C)CCCN1c2ccccc2CCc2ccc(Cl)cc21 [CLOMIPRAMINE] | – | Not Active | – | Not Active | Not Active | Not Active | Not Active | Not Active | Not Active | Not Active | Not Active | – | – | – | – | pIC50 [1]: 7.47; pKi [1]: 7.74; pIC50 (D(3) dopamine receptor): 6.86; pKi (D(3) dopamine receptor): 7.33
3 | CC(C)(O)c1ccccc1CC[C@@H](SCC1(CC(=O)O)CC1)c1cccc(/C=C/c2ccc3ccc(Cl)cc3n2)c1 [MONTELUKAST] | Not Active | Not Active | – | Not Active | Not Active | Not Active | – | Not Active | Not Active | Not Active | Not Active | – | – | – | – | –
4 | COC(=O)C1=C(C)NC(C)=C(C(=O)OC)C1c1ccccc1[N+](=O)[O-] [NIFEDIPINE] | – | Not Active | Not Active | Not Active | Not Active | Not Active | Not Active | Not Active | Not Active | – | – | Not Active | Not Active | Not Active | Not Active | pIC50 [1]: 4.74; pKi [1]: 5.02
5 | Clc1ccccc1C(c1ccccc1)(c1ccccc1)n1ccnc1 [CLOTRIMAZOLE] | – | Not Active | – | Not Active | Not Active | Not Active | – | – | – | Not Active | Not Active | – | – | – | – | pIC50 [1]: 4.84; pKi [1]: 5.12; pIC50 (D(3) dopamine receptor): 5.58; pKi (D(3) dopamine receptor): 6.05; pIC50 ([5]; read-out: IC50): 5.30; pKi ([5]; read-out: Ki): 5.76; pIC50 (Acetylcholinesterase; read-out: IC50): 4.71
6 | CSc1ccc2c(c1)N(CCC1CCCCN1C)c1ccccc1S2 (stereo not given) [THIORIDAZINE] | – | Not Active | – | Not Active | Not Active | Not Active | Not Active | Not Active | Not Active | Not Active | Not Active | – | – | – | – | –
7 | CN[C@@H]1[C@@H](O)[C@@H](O[C@@H]2[C@@H](O)[C@H](O[C@H]3OC(CN)=CC[C@H]3N)[C@@H](N)C[C@H]2N)OC[C@]1(C)O [SISOMICIN] | Not Active | Not Active | Not Active | Not Active | Not Active | Not Active | Not Active | Not Active | Not Active | – | – | Not Active | Not Active | Not Active | Not Active | –
8 | COc1ccc(CCN2CCC(Nc3nc4ccccc4n3Cc3ccc(F)cc3)CC2)cc1 [ASTEMIZOLE] | – | Not Active | – | Not Active | – | Not Active | – | Not Active | Not Active | Not Active | Not Active | – | – | – | – | pIC50 (Melanocortin receptor 5; read-out: IC50): 5.65; pKi (Melanocortin receptor 5; read-out: Ki): 5.67
9 | COC(=O)[C@@H]1[C@H]2C[C@H]3c4[nH]c5ccccc5c4CCN3C[C@@H]2CC[C@@H]1O [YOHIMBINE] | Not Active | Not Active | Not Active | Not Active | Not Active | Not Active | Not Active | Not Active | Not Active | – | – | Not Active | Not Active | Not Active | Not Active | –
10 | O=C1c2c(O)ccc(O)c2C(=O)c2c(NCCNCCO)ccc(NCCNCCO)c21 [MITOXANTRONE] | – | Not Active | Not Active | Not Active | Not Active | Not Active | Not Active | Not Active | Not Active | – | – | Not Active | Not Active | Not Active | Not Active | –
11 | O=C(CCCN1CCC(O)(c2ccc(Cl)cc2)CC1)c1ccc(F)cc1 [HALOPERIDOL] | – | Not Active | – | Not Active | Not Active | Not Active | Not Active | Not Active | Not Active | Not Active | Not Active | – | – | – | – | –
12 | CN1CCN2c3ccccc3Cc3ccccc3C2C1 (stereo not given) [MIANSERIN] | – | Not Active | Not Active | Not Active | Not Active | Not Active | Not Active | Not Active | Not Active | Not Active | Not Active | – | – | – | – | –
